Publication PMC7044277 (Nature Communications, 2020)
Several values for one entry are separate records, joined by “and”; a condition that tells them apart may be missing. Equal values may be shown once. Read-outs that look alike come from different tables or passages of the source.

Key:
[1] = test system: 320 non-olfactory GPCRs; assay type: cell-based; parameters: GPCRome screening signal at PTGIR / GPCRome screening signal at PTH1R / GPCRome screening signal at PTH2R / GPCRome screening signal at QRFP / GPCRome screening signal at RXFP2 / GPCRome screening signal at RXFP3 / GPCRome screening signal at RXFP4 / GPCRome screening signal at S1PR2 / GPCRome screening signal at S1PR3 / GPCRome screening signal at S1PR4 / GPCRome screening signal at S1PR5 / GPCRome screening signal at SCTR / GPCRome screening signal at SSTR2 / GPCRome screening signal at SSSTR / GPCRome screening signal at SSTR4 / GPCRome screening signal at SSTR5 / GPCRome screening signal at SUCNR1 / GPCRome screening signal at TA1 / GPCRome screening signal at TAAR2 / GPCRome screening signal at TAAR5 / GPCRome screening signal at TAAR6 / GPCRome screening signal at TAAR8 / GPCRome screening signal at TACR1 / GPCRome screening signal at TACR2 / GPCRome screening signal at TACR3 / GPCRome screening signal at TBXA2R / GPCRome screening signal at TSHR / GPCRome screening signal at UTS2R / GPCRome screening signal at VIPR2 / GPCRome screening signal at GPR68 no V2 Tail / GPCRome screening signal at GRM2 / GPCRome screening signal at GRM3: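 fold over basal response of each receptor without drug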; conditions: for GPCRome agonism screen response: replicate values, Fig_4g;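 for GPCRome agonism screen response: fold over basal response of each receptor without drug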
[2] = target: DRD2 F1103.28A (Homo sapiens, UniProt P14416, F110A); assay type: binding; parameters: expressed in transfected cells; host or cells: HEK293T (ATCC CRL-11268)
[3] = target: T1, DRD2 F1103.28L (Homo sapiens, UniProt P14416, F110L); experiment: β-arrestin2 recruitment (Tango), mutant; assay type: cell-based
T1 construct: expressed in transfected cells; host or cells: HEK293T (ATCC CRL-11268)

[4] = target: DRD3 (Homo sapiens, UniProt P35462); experiment: Gαi/o-mediated cAMP inhibition (GloSensor); assay type: cell-based; conditions: DRD3, cAMP inhibition
[5] = read-out: Emax relative to quinpirole response

Sequence of DRD3 (P35462 whole entry): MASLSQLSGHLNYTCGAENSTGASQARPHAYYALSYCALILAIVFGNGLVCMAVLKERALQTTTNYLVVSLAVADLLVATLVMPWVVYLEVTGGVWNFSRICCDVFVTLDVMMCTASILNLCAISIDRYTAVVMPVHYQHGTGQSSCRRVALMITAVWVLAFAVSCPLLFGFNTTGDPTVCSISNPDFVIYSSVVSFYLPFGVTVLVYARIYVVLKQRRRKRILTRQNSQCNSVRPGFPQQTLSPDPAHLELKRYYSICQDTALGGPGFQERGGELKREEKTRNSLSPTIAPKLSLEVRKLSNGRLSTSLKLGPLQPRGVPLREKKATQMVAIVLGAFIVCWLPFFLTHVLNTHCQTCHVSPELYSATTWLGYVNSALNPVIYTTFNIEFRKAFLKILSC
T1 sequence (P14416 whole entry F110L): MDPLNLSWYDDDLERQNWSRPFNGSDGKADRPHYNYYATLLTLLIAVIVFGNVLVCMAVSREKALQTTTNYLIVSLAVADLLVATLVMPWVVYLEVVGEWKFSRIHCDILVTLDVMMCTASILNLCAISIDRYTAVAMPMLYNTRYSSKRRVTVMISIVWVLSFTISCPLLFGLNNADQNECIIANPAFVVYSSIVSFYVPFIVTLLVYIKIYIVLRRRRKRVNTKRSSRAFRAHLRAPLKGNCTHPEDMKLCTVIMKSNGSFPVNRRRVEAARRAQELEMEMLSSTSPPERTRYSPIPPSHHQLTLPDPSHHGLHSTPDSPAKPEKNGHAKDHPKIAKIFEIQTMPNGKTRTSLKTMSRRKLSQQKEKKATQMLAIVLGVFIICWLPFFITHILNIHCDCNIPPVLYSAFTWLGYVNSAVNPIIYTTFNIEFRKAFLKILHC
Sequence of DRD2 F1103.28A (P14416 whole entry F110A): as the sequence (P14416 whole entry F110L) above, with L110A counted along it

SMILES | GPCRome screening signal at GPR68 no V2 Tail ([1]; receptor GPR68 no V2 Tail, Fig_5f, single replicate values) | GPCRome screening signal at QRFP ([1]; receptor QRFP, Fig_5f, single replicate values) | GPCRome screening signal at SSSTR ([1]; receptor SSSTR, Fig_5f, single replicate values) | Ki ([2]; DRD2 F1103.28A, read-out: Ki) | affinity increase (binding enhanced), mutant vs wild type ([2]; DRD2 Phe110^3.28Ala vs wild-type DRD2) | GPCRome agonism screen response ([1]; receptor LTB4R2B) | GPCRome agonism screen response ([1]; receptor NPS) | GPCRome agonism screen response ([1]; receptor PK1) | GPCRome agonism screen response ([1]; receptor PRRP) | GPCRome agonism screen response ([1]; receptor QRFP) | GPCRome agonism screen response ([1]; receptor SSSTR) | EC50 [3] | Emax [3, 5] | EC50 ([4]; agonist, read-out: EC50 ± SEM) | Emax [4, 5]
CCOc1ccccc1CCC(C)NCC1(O)CCCCC1.Cl (racemic) [Fig_5f] | 1.613 and 0.9285 and 0.7993 and 0.365 | 1.818 and 1.297 and 0.5847 and 0.9504 | 1.07 and 0.3317 and 0.4095 and 0.9006 |  |  |  |  |  |  |  |  |  |  |  | 
CCOc1cccc2cc(C(C)NCC3(O)CCCCC3)oc12 (stereo not drawn) [O4LE6] |  |  |  | 720 nM | 2.64 fold | 0.6938 and 0.9232 and 0.5075 | 0.4686 and 1.378 and 0.7119 and 0.6607 | 0.8997 and 0.9125 and 0.8846 and 0.857 | 0.431 and 1.1359 and 1.866 and 0.5549 | 0.8017 and 1.022 and 0.9768 and 1 | 0.8501 and 0.9752 and 2.465 and 0.6314 | 204 nM | 4.32% | 5.09 ± 0.16 nM | 62.4%
